From ChEMBL document CHEMBL1123073, “Conjugates of catecholamines. 6. Synthesis and beta-adrenergic activity of N-(hydroxyalkyl)catecholamine derivatives” (1985)

Experiment: Relative potency was determined in vitro by measuring the accumulation of cyclic AMP in SV-49 mouse lymphoma cells relative to dl-isoproterenol
Assay type: functional

Row | Compound | Relative potency
1 | O=P(O)(O)O.OCCCNCC(O)c1ccc(O)c(O)c1 (centres undefined) | 0.0058
2 | Cc1ccc(C(=O)OCCCC(C)NCC(O)c2ccc(O)c(O)c2)cc1.O=P(O)(O)O (centres undefined) | 0.0063
3 | CC(CCCOC(=O)NC1CCCCC1)NCC(O)c1ccc(O)c(O)c1.Cl (centres undefined) | 29
4 | Cc1ccc(NC(=O)OCCCCC(C)NCC(O)c2ccc(O)c(O)c2)cc1.O=P(O)(O)O (centres undefined) | 1.3
5 | Cc1ccc(C(=O)NC(=O)OCCCC(C)NCC(O)c2ccc(O)c(O)c2)cc1.Cl (centres undefined) | 73
6 | CC(CCO)NCC(O)c1ccc(O)c(O)c1.O=P(O)(O)O (centres undefined) | 0.012
7 | CCCCNC(=O)OCCCC(C)NCC(O)c1ccc(O)c(O)c1.O=P(O)(O)O (centres undefined) | 190
8 | Cc1ccc(NC(=O)OCCCC(C)NCC(O)c2ccc(O)c(O)c2)cc1.O=P(O)(O)O (centres undefined) | 0.092
9 | CC(CCCO)NCC(O)c1ccc(O)c(O)c1.O=P(O)(O)O (centres undefined) | 1.3
